Assay results: the METLIN SMRT retention time set (Domingo-Almenara et al. 2019)

Assay: gradient 5% acetonitrile 3 min, to 50% in 2 min, to 85% in 15 min, held 3 min, 100 µL/min
Settings: column: Zorbax Extend-C18 2.1 x 50 mm; eluents: water / acetonitrile, 0.1% formic acid
How it was run: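 Retention times come from adduct peaks that were picked computationally and then checked by hand. The standards, pure and pooled in mixtures of ~100 molecules, were run on a Zorbax Extend-C18 column (2.1 × 50 mm, 1.8 μm) at 100 μL/min with water and acetonitrile, each with 0.1% formic acid. Detection was by quadrupole time-of-flight mass spectrometry in positive and negative ionization mode, with a dead volume of 40 μL and a dwell volume of 900 μL.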
CCN(CC)CCNC(=O)Cn1nc(C)c2nn(-c3ccc(F)cc3)c(-n3cccc3)c2c1=O showed an RP-LC retention time of 675 s.
In the case of O=C(c1ccc(F)cc1)N1CCC(n2nc(-c3ccsc3)ccc2=O)CC1, the RP-LC retention time is reported as 816 s.
Work on O=C(c1ccc(Br)o1)N1CCc2nc(-c3ccc(Cl)cc3)ncc2C1 yielded an RP-LC retention time of 1100 s.
Compound Cc1ccc(C)c(Cn2nnc(C(=O)O)c2C)c1 has an RP-LC retention time of 783 s.
Compound Cc1nc(Cn2cccc2C(=O)NC2CCCCCC2)no1 has an RP-LC retention time of 879 s.
In the case of O=C1COc2ccccc2N1Cc1nc(-c2cccc(Br)c2)no1, the RP-LC retention time is reported as 1120 s.
CCN1C(=O)C(C)(C(=O)Nc2cc(OC)cc(OC)c2)Oc2cccnc21 (stereo unspecified) gave an RP-LC retention time of 868 s.
Work on O=C(Cn1ccc2sccc2c1=O)NCc1ccccc1F yielded an RP-LC retention time of 785 s.
Work on C[C@H]1CN(C(=O)c2cc(F)cc(F)c2)C[C@@H]1c1nc(-c2ccncc2)no1 yielded an RP-LC retention time of 781 s.
COC(=O)C1=CN(c2ccc(OC)c(OC)c2)c2cc(F)ccc2S1(=O)=O showed an RP-LC retention time of 821 s.
Work on CCc1noc(NC(C)=O)c1-c1ccc(C)c(S(=O)(=O)N2CCCC2)c1 yielded an RP-LC retention time of 801 s.
Work on Cc1ccc(S(=O)(=O)Nc2cccc(-c3cn4ccccc4n3)c2)cc1C yielded an RP-LC retention time of 648 s.
O=c1ccc(-c2ccc3c(c2)OCO3)nn1CCc1nc(-c2ccc(Br)cc2)no1 showed an RP-LC retention time of 1050 s.
In the case of CCc1nc(N)n(CC(=O)Nc2ccc(F)cc2C)c(=O)c1C, the RP-LC retention time is reported as 626 s.
For CCCCOc1ccc(S(=O)(=O)N2CCN(c3cc(C)nc(NC4CCCCC4)n3)CC2)cc1, the RP-LC retention time was 996 s.
With Cc1ccc(N2C(=O)CSC2c2ccccc2)cc1 (stereo unspecified) the RP-LC retention time was 843 s.
Work on COc1ccccc1C1NC(=O)NC(C)=C1C(=O)OC1CCCC1C (stereo unspecified) yielded an RP-LC retention time of 924 s.
With CC(O)(CNC(=O)C(=O)NCCC1=CCCCC1)c1cccs1 (stereo unspecified) the RP-LC retention time was 1120 s.
In the case of O=S(=O)(c1ccc2nncn2c1)N(Cc1ccccc1F)c1ccc2c(c1)OCCO2, the RP-LC retention time is reported as 745 s.
Cc1nc2ccc3nc(NC(=O)c4snnc4C)sc3c2s1 showed an RP-LC retention time of 772 s.
Cc1cnc(C2CCOCC2)n1C1CCN(C(=O)NC2CCCCC2)CC1 showed an RP-LC retention time of 611 s.
O=C(CCn1cnc2cc(-c3noc(-c4cncc(Br)c4)n3)ccc21)N1CCCCCC1 gave an RP-LC retention time of 814 s.
O=C(NCc1csc(C2CCN(S(=O)(=O)c3ccccc3F)CC2)n1)C1CCC1 showed an RP-LC retention time of 811 s.
Work on COc1ccc(-c2nc(-c3ccc4nncn4c3)no2)c(OC)c1 yielded an RP-LC retention time of 800 s.
For Cc1ccc(C)c(N2CCN(c3ccncc3N)CC2)c1, the RP-LC retention time was 777 s.
In the case of Cc1nncn1C1CN(C(=O)c2cc3ccccc3[nH]2)C1, the RP-LC retention time is reported as 623 s.
In the case of COC(=O)c1cc(Cl)c(NC(=O)C(C)C)cc1OC, the RP-LC retention time is reported as 767 s.
For Cn1nc(-c2nc(C3CC3)no2)c2c1CCN(C(=O)c1ccc(C(C)(C)C)cc1)C2, the RP-LC retention time was 1290 s.
Work on CCOC(=O)N1CCN(c2cc(C(=O)O)c3cc(NC(=O)c4ccc(Cl)cc4)ccc3n2)CC1 yielded an RP-LC retention time of 667 s.
Compound CCCN1C(=O)COc2ccc(-c3csc(NC(=O)C4CCCCC4)n3)cc21 has an RP-LC retention time of 1100 s.
Work on Cc1cn(C)c(CC(=O)NCCN2CCCCC2)c1C(=O)O yielded an RP-LC retention time of 578 s.
CCOc1ccccc1-n1ccn(Cc2nc(-c3ccc(OC)cc3)no2)c(=O)c1=O showed an RP-LC retention time of 846 s.
With CCOC(=O)c1sc2ncnc(N3CCc4ccccc4C3)c2c1C the RP-LC retention time was 1310 s.
CCCCNC(=O)c1cnn(-c2ccc(-c3nc(C)no3)cn2)c1C gave an RP-LC retention time of 853 s.
For Cc1cc(OCC(=O)NCc2cccs2)nc(-c2ccc(F)cc2)n1, the RP-LC retention time was 885 s.
Work on CCOc1cccc2cc(C(=O)N3CCOCC3)oc12 yielded an RP-LC retention time of 718 s.
For O=C(N[C@H]1C[C@@H]2C[C@H]1N(C(=O)c1ccccn1)C2)c1ccccc1, the RP-LC retention time was 622 s.
COc1ccc(OC)c(NC(=O)Nc2c(-c3ccccc3)nc3ccccn23)c1 showed an RP-LC retention time of 668 s.
Compound O=C(NCc1ccc2c(c1)OCO2)C1CCCN(c2nn3c(=O)c4c(nc3s2)CCCC4)C1 (stereo unspecified) has an RP-LC retention time of 719 s.
Work on O=C(Cn1nc2n(c1=O)CCCC2)Nc1ccc(Cl)cc1 yielded an RP-LC retention time of 688 s.
Cc1cc(C)c(C(=O)N2CCC(CC(=O)NCCCN3CCCCCC3)CC2)[nH]1 gave an RP-LC retention time of 594 s.
For O=C(Cn1nc2c(N3CCSCC3)nccn2c1=O)NC1CCCC1, the RP-LC retention time was 722 s.
For CC(C)c1noc(-c2cc(=O)n(CC(=O)NCc3ccc(F)cc3)c3ccccc23)n1, the RP-LC retention time was 951 s.
In the case of Nc1c(C(=O)Nc2nc(-c3ccccc3)cs2)sc2nc3c(cc12)CCCCC3, the RP-LC retention time is reported as 1170 s.
With CCOC(=O)N1CCN(C(=O)Nc2cccc(Cl)c2)CC1 the RP-LC retention time was 732 s.
Compound COc1ccc(C2CC(=O)N(c3ccc(C)cc3)C(=O)C2)cc1OC has an RP-LC retention time of 831 s.
With CCN(CC)c1nc(C(=O)NCCN2CCN(C)CC2)nc2nc(C)cc(C)c12 the RP-LC retention time was 542 s.
In the case of CCS(=O)(=O)N1CC(=O)N(c2ccc(C)cc2)C(C)(C(=O)NCc2ccc(F)cc2)C1 (stereo unspecified), the RP-LC retention time is reported as 834 s.
CCOc1ccc(C(=O)Nc2cccn3nc(C(C)C)nc23)cc1 showed an RP-LC retention time of 964 s.
NS(=O)(=O)c1ccc(NC(=O)c2ccc(Br)cc2F)cc1 showed an RP-LC retention time of 729 s.
Compound CCNC(=O)N1CC(n2cc(C(=O)NCCCOC)nn2)C1 has an RP-LC retention time of 580 s.
With CC(C)S(=O)(=O)N1CCC(c2noc(-c3cccnc3)n2)C1 (stereo unspecified) the RP-LC retention time was 730 s.
Work on Cc1ccc(C)c(NC(=O)Cn2nc3c(N4CCCCCC4)nccn3c2=O)c1 yielded an RP-LC retention time of 730 s.
With O=C(NC1CCCCCC1)C1CCCN(c2nccnc2Oc2ccccc2)C1 (stereo unspecified) the RP-LC retention time was 1060 s.
O=C(COc1ccccc1)Nc1nnc(SCC(=O)N2CCCc3ccccc32)s1 gave an RP-LC retention time of 859 s.
With CCc1nnc(C2CN(C)CC23CCN(S(=O)(=O)c2ccc(F)c(C)c2)CC3)o1 (stereo unspecified) the RP-LC retention time was 634 s.
With CCc1noc(NC(C)=O)c1-c1ccc(C)c(S(=O)(=O)NCc2cccc(OC)c2)c1 the RP-LC retention time was 807 s.
For COc1ccc(Cn2c(CO)cnc2SCC(=O)N2CCCc3ccccc32)cc1, the RP-LC retention time was 702 s.
COC(=O)c1cc(OCC(=O)Nc2cc(F)ccc2F)c2ccccc2n1 gave an RP-LC retention time of 838 s.
CCOc1ccc(/C=C/C(=O)Nc2nc(-c3ccccc3)cs2)cc1 gave an RP-LC retention time of 1140 s.
In the case of COc1cccc(CCC(=O)NC(C)C(=O)Nc2nc3ccccc3[nH]2)c1 (stereo unspecified), the RP-LC retention time is reported as 660 s.
COc1ccc(-c2ccnc3cc(C(=O)Nc4ccc5c(c4)OCO5)nn23)cc1OC gave an RP-LC retention time of 848 s.
Compound O=C(c1ccccc1F)N1CCC(C(=O)N2CCc3ccccc32)CC1 has an RP-LC retention time of 822 s.
CSc1cccc(NC(=O)c2[nH]c3cc(C)sc3c2CN2CCOCC2)c1 gave an RP-LC retention time of 733 s.
For COCCCNC(=O)c1nn(-c2ccc(Cl)cc2)c2c(=O)n(C)cnc12, the RP-LC retention time was 716 s.
In the case of Cc1[nH]c2ccccc2c1C(=O)CSc1nnc2sc3ccccc3n12, the RP-LC retention time is reported as 829 s.
Compound CCN1C(=O)C2(CCN(C(=O)C3CCCCC3)CC2)c2ccccc21 has an RP-LC retention time of 950 s.
Cc1noc(CNC(=O)C2CCN(C(=O)CSc3nc4ccccc4s3)CC2)n1 showed an RP-LC retention time of 665 s.
With O=C(CCS(=O)(=O)c1ccccc1)N1CCCc2ccccc21 the RP-LC retention time was 779 s.
For CCOc1cc(CNCCc2c[nH]c3ccccc23)ccc1Oc1nnnn1-c1ccccc1, the RP-LC retention time was 780 s.
In the case of Cc1ccccc1-c1noc(Cn2c(=O)n(Cc3ccco3)c(=O)c3ccccc32)n1, the RP-LC retention time is reported as 1100 s.
COc1ccc(N2CCN(C(CNC(=O)C(=O)Nc3ccon3)c3ccco3)CC2)cc1 (stereo unspecified) showed an RP-LC retention time of 591 s.
CCC(C)n1nnc2cc(S(=O)(=O)N3CCC(C(=O)NCc4cccnc4)CC3)ccc21 (stereo unspecified) gave an RP-LC retention time of 648 s.
O=c1oc2cc(O)c(Cl)cc2c2ccccc12 showed an RP-LC retention time of 847 s.
In the case of Cc1ccc(NC(=O)NC2CCN(c3ccc(F)c(C)c3)C2=O)cc1C (stereo unspecified), the RP-LC retention time is reported as 899 s.
Work on O=C(Cn1c(=O)oc2ccccc21)NCc1n[nH]c(=O)c2ccccc12 yielded an RP-LC retention time of 595 s.
Nc1nc(N2CCc3ccccc3C2)ncc1C(=O)NCc1ccccc1 gave an RP-LC retention time of 737 s.
Cc1cccc(CNC(=O)c2sc(CC(=O)N3CCSCC3)nc2C)c1 gave an RP-LC retention time of 798 s.
Cc1ccccc1-n1ccn(Cc2nc(-c3cccc(F)c3)no2)c(=O)c1=O showed an RP-LC retention time of 837 s.
O=C(Cn1c(=O)c2cccn2c2ccc(F)cc21)N1CCOCC1 gave an RP-LC retention time of 686 s.
For COc1ccc(-c2cn3c(CC(=O)NC4CCCCCC4)csc3n2)cc1OC, the RP-LC retention time was 729 s.
In the case of COC(=O)C1=CN(C2CC2)c2cc(N3CCN(C(C)C)CC3)c(F)cc2S1(=O)=O, the RP-LC retention time is reported as 740 s.
CCc1cc(C2CCCN2Cc2ccc(OC)c(O)c2)on1 (stereo unspecified) showed an RP-LC retention time of 588 s.
Work on COc1ccc2[nH]c(=O)c(CCC(=O)N(C)Cc3cn(C)nc3C)cc2c1 yielded an RP-LC retention time of 618 s.
CCN1c2cc(C(N)=O)ccc2C(=O)N2CCCCCC21 (stereo unspecified) showed an RP-LC retention time of 649 s.
For CNC(=O)C1CCCN(c2nc3ncn(CC(=O)Nc4cc(OC)ccc4OC)c(=O)c3s2)C1 (stereo unspecified), the RP-LC retention time was 705 s.
CCOc1ccc(C2c3[nH]c4ccccc4c3CCN2C(=O)CCC2CCCC2)cc1 (stereo unspecified) showed an RP-LC retention time of 1460 s.
Cc1ccc(CNC(=O)C2CCCN(c3ccc(=O)n(-c4ccc(C)c(Cl)c4)n3)C2)cc1 (stereo unspecified) showed an RP-LC retention time of 975 s.
O=C(c1ccc(Cl)c(Cl)c1)N1CCN(c2ccc(-c3ccco3)nn2)CC1 showed an RP-LC retention time of 733 s.
Compound CN1c2ccc(F)cc2C(=O)NC12CCN(C(=O)c1ccccc1Cl)CC2 has an RP-LC retention time of 751 s.
COC(=O)c1cc(C)nc2c1c(=O)n(Cc1cccc(F)c1)c(=O)n2Cc1ccco1 gave an RP-LC retention time of 1100 s.
